Some results are limits rather than exact numbers.

T1 sequence (P07333 20-972): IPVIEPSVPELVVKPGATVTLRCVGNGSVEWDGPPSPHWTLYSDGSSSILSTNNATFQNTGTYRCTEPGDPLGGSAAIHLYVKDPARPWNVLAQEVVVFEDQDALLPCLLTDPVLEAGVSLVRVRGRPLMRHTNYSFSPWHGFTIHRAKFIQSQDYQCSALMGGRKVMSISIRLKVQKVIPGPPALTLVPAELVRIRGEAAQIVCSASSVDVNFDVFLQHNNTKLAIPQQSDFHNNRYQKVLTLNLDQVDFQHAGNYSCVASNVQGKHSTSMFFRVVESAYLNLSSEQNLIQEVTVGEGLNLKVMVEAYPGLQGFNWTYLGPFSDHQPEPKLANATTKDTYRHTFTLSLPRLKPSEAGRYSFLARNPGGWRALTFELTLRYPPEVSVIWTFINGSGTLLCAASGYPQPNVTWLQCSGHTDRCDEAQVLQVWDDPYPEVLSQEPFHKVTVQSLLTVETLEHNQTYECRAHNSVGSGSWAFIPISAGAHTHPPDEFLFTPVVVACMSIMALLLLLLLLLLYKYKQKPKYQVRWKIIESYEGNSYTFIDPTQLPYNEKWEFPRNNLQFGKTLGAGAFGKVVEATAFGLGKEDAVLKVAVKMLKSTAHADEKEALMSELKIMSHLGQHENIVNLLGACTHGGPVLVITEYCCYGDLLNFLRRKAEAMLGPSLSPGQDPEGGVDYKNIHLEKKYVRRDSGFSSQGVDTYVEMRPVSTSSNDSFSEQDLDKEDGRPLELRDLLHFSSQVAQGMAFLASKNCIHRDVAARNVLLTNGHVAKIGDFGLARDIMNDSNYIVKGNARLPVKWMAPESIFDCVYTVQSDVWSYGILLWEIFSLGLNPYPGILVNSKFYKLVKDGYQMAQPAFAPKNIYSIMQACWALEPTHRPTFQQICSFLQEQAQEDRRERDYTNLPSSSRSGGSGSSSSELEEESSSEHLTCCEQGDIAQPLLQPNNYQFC

This experiment has as its target T1, Fms (Homo sapiens, UniProt P07333).
T1 construct: purchased Upstate Biotech 14-551
Nature of the experiment: Fms biochemical assay (AlphaScreen or 33P-ATP). Conditions: under the test conditions employed; read-out: IC50 toward kinase Fms. The source says:
Each sample was at 5% DMSO.
In general terms: Alpha assays give light when donor and acceptor beads are brought close together.
For orientation: IC50 means the concentration that inhibits the measured activity by half. For `Fc1ccc(OCc2ccccc2)c(F)c1Cc1c[nH]c2ncccc12` [P-1803, 3-(3-Benzyloxy-2,6-difluoro-benzyl)-1H-pyrrolo[2,3-b]pyridine], the IC50 was at most 10 µM.

Take `COc1cc(Cc2c[nH]c3ncccc23)ccc1OCc1ccc(CN2CCN(C)CC2)cc1` [P-1821, 3-{3-Methoxy-4-[4-(4-methyl-piperazin-1-ylmethyl)-benzyloxy]-benzyl}-1H-pyrrolo[2,3-b]pyridine]: the concentration for half-maximal inhibition (IC50) was at most 10 µM.

Consider `O=C(c1cccc(OCc2ccc(Cl)cc2)c1OCCF)c1c[nH]c2ncccc12` [P-2118, [3-(4-Chloro-benzyloxy)-2-(2-fluoro-ethoxy)-phenyl]-(1H-pyrrolo[2,3-b]pyridin-3-yl)-methanone], for which the IC50 was at most 10 µM.

Consider `O=C(c1cccc(OCc2ccc(Cl)cc2F)c1OCC(F)F)c1c[nH]c2ncccc12` [P-2119, [3-(4-Chloro-2-fluoro-benzyloxy)-2-(2,2-difluoro-ethoxy)-phenyl]-(1H-pyrrolo[2,3-b]pyridin-3-yl)-methanone], for which the IC50 was at most 10 µM.

For the compound `CCOc1c(OCc2cccc(C)n2)cccc1C(=O)c1c[nH]c2ncccc12` [P-2122, [2-Ethoxy-3-(6-methyl-pyridin-2-ylmethoxy)-phenyl]-(1H-pyrrolo[2,3-b]pyridin-3-yl)-methanone], the IC50 was at most 10 µM.

Take `CCOc1c(OCc2ccc(Cl)cc2F)cccc1C(=O)c1c[nH]c2ncccc12` [P-2123, [3-(4-Chloro-2-fluoro-benzyloxy)-2-ethoxy-phenyl]-(1H-pyrrolo[2,3-b]pyridin-3-yl)-methanone]: the IC50 was at most 10 µM.

Turning to `CCOc1c(OCc2sc(C)nc2C)cccc1C(=O)c1c[nH]c2ncccc12` [P-2124, [3-(2,4-Dimethyl-thiazol-5-ylmethoxy)-2-ethoxy-phenyl]-(1H-pyrrolo[2,3-b]pyridin-3-yl)-methanone], the IC50 was at most 10 µM.

As to `CCOc1c(OCc2cc(C)nn2C)cccc1C(=O)c1c[nH]c2ncccc12` [P-2125, [3-(2,5-Dimethyl-2H-pyrazol-3-ylmethoxy)-2-ethoxy-phenyl]-(1H-pyrrolo[2,3-b]pyridin-3-yl)-methanone], the IC50 was at most 10 µM.

In the case of `CCOc1c(OCCCN2CCOCC2)cccc1C(=O)c1c[nH]c2ncccc12` [P-2126, [2-Ethoxy-3-(3-morpholin-4-yl-propoxy)-phenyl]-(1H-pyrrolo[2,3-b]pyridin-3-yl)-methanone], the IC50 is at most 10 µM.

For the compound `CCOc1c(OCc2ccccc2F)cccc1C(=O)c1c[nH]c2ncccc12` [P-2127, [2-Ethoxy-3-(2-fluoro-benzyloxy)-phenyl]-(1H-pyrrolo[2,3-b]pyridin-3-yl)-methanone], the IC50 was at most 10 µM.

Regarding `CCOc1c(OCc2ccc(N3CCOCC3)nc2)cccc1C(=O)c1c[nH]c2ncccc12` [P-2128, [2-Ethoxy-3-(6-morpholin-4-yl-pyridin-3-ylmethoxy)-phenyl]-(1H-pyrrolo[2,3-b]pyridin-3-yl)-methanone], the IC50 was at most 10 µM.

`CCOc1c(OCc2ccc(C(F)(F)F)nc2)cccc1C(=O)c1c[nH]c2ncccc12` [P-2129, [2-Ethoxy-3-(6-trifluoromethyl-pyridin-3-ylmethoxy)-phenyl]-(1H-pyrrolo[2,3-b]pyridin-3-yl)-methanone]: the IC50 was at most 10 µM.

Regarding `CCOc1c(OCc2ccc(-n3ccnc3)cc2)cccc1C(=O)c1c[nH]c2ncccc12` [P-2131, [2-Ethoxy-3-(4-imidazol-1-yl-benzyloxy)-phenyl]-(1H-pyrrolo[2,3-b]pyridin-3-yl)-methanone], the IC50 was at most 10 µM.

In the case of `CCOc1c(OCc2ccc(F)cc2F)cccc1C(=O)c1c[nH]c2ncccc12` [P-2132, [3-(2,4-Difluoro-benzyloxy)-2-ethoxy-phenyl]-(1H-pyrrolo[2,3-b]pyridin-3-yl)-methanone], the IC50 is at most 10 µM.

Turning to `CCOc1c(OC(C)c2ccccc2F)cccc1C(=O)c1c[nH]c2ncccc12` (stereo not drawn) [P-2133, {2-Ethoxy-3-[1-(2-fluoro-phenyl)-ethoxy]-phenyl}-(1H-pyrrolo[2,3-b]pyridin-3-yl)-methanone], the IC50 is at most 10 µM.

The values above are taken from patent publication US7872018B2, “Compounds and methods for kinase modulation, and indications therefor” (Plexxikon, Inc., priority 2006, dated 2011).
